According to US20250134845A1, “Fumaric Acid Esters, Inhalation Administration Methods, Pharmaceutical Uses and Compositions” (Emory University, priority 2022, published 2025):
Where a name gives a salt, the structure may show the parent alone.

Experiments:
IPF lung fibroblasts [1] = assay: H2O2 production in IPF lung fibroblasts (Amplex Red assay); type: cell-based, human; details: 24 h
Description: IPF lung fibroblasts were treated with DMF (1 μM) or vehicle (DMSO) followed by treatment TGF-b (2 ng/ml). H2O2 levels were evaluated at 24 h by Amplex™ Red assay.
Culture supernatant was evaluated for H2O2 levels at 24 h by Amplex™ Red assay.
Since primary mesenchymal cells isolated from IPF lungs represent a heterogeneous population of both fibroblasts and myofibroblasts “(myo)fibroblasts”, the efficacy of DMF was evaluate on both TGF-beta-induced and established profibrogenic phenotypes of these cells. To determine if DMF treatment can inhibit fibrogenic responses induced by TGF-beta, cells were pre-treated with DMF or vehicle followed by treatment with TGF-beta for 24 h.

IPF lung fibroblasts [2] = assay: Collagen-1 expression in IPF lung fibroblasts (Western blot, densitometry); type: cell-based, human; details: vs vehicle
Excerpt: Since primary mesenchymal cells isolated from IPF lungs represent a heterogeneous population of both fibroblasts and myofibroblasts “(myo)fibroblasts”, the efficacy of DMF was evaluate on both TGF-beta-induced and established profibrogenic phenotypes of these cells. […]

[3] = system: aged mice with bleomycin-induced persistent lung fibrosis; assay: Aging murine model of bleomycin-induced persistent lung fibrosis: reversal of established fibrosis; type: in vivo, mouse; details: 3-6 weeks post-injury
Description: C57BL/6 aged (18 month) female mice received an intratracheal instillation of bleomycin (0.02875 U/mouse). DMF was administered daily by oral gavage (240 μg/150 μL in sterile PBS/mouse) or intranasal instillation (80 μg/50 μL in sterile PBS/mouse) from 3-6 weeks post-injury. Lung tissue was assessed by hematoxylin and eosin (H&E) staining for histopathology and Masson's trichrome blue staining for collagen. […] At 3 weeks post-bleomycin administration, mice were randomly assigned to one of four treatment groups. Between 3-6 weeks post-injury, DMF or vehicle (sterile PBS) was administered daily by oral gavage (240 μg/dose in 150 μL total volume) (Table 1) using a gavage tube. In parallel, mice were anesthetized using isoflurane and administered DMF or vehicle (sterile PBS) daily by intranasal instillation (80 μg/dose in 50 μL total volume) (Table 1). The control animals received vehicle only. Dosing was based on the solubility of this compound in the vehicle in the total volume used for administration (DMF was dissolved in sterile PBS at 42° C. and sonicated for 50 min). Mice were monitored for body-weight changes and survival. Mice were removed from the study when greater than 20% weight loss was observed compared to pre-surgery (day 0) or lack of responsiveness to touch. At 6 weeks post-injury, mice were sacrificed by CO2 inhalation. This aging model of bleomycin-induced persistent lung fibrosis enables the evaluation of therapeutic agents for their efficacy in reversing age-dependent established fibrosis. […] Using the same injury model and treatment protocol, aged mice were administered DMF or vehicle daily via intranasal delivery from 3-6 weeks post-injury.

Nrf2 = assay: Lung Nrf2 expression in aged-injured mice (densitometric analysis); type: in vivo, mouse
Description: Oral-vehicle (n=7); oral-DMF (n=7); intranasal-vehicle (n=4); intranasal-DMF (n=4).
(§1) At 3 weeks post-bleomycin administration, mice were randomly assigned to one of four treatment groups. Between 3-6 weeks post-injury, DMF or vehicle (sterile PBS) was administered daily by oral gavage (240 μg/dose in 150 μL total volume) (Table 1) using a gavage tube. In parallel, mice were anesthetized using isoflurane and administered DMF or vehicle (sterile PBS) daily by intranasal instillation (80 μg/dose in 50 μL total volume) (Table 1). The control animals received vehicle only. Dosing was based on the solubility of this compound in the vehicle in the total volume used for administration (DMF was dissolved in sterile PBS at 42° C. and sonicated for 50 min). Mice were monitored for body-weight changes and survival. Mice were removed from the study when greater than 20% weight loss was observed compared to pre-surgery (day 0) or lack of responsiveness to touch. At 6 weeks post-injury, mice were sacrificed by CO2 inhalation.
(§2) In summary, lung-targeted treatment with DMF via inhaled delivery (as compared to oral delivery) can more effectively rescue local Nrf2 expression levels and promote redox homeostasis in the lungs.

[4] = system: oxidative stress (ROS, oxidized glutathione, lipid peroxidation); assay: Blood ROS, lung oxidized glutathione and lung lipid peroxidation in aged-injured mice; type: in vivo, mouse; details: for blood ROS levels: aged-injured mice
Description: Oral-DMF (n=7); intranasal-DMF (n=6).
Oral-vehicle (n=5); oral-DMF (n=5); intranasal-vehicle (n=3); intranasal-DMF (n=4).
Oral-vehicle (n=5); oral-DMF, (n=5); intranasal-vehicle (n=4); intranasal-DMF (n=3).
as §1, §2

IPF lung fibroblasts [5] = details: sulforaphane treatment (Nrf2 activation); cited from earlier work
[6] = intranasal 80 μg/dose daily, vs vehicle and oral DMF
[7] = oral gavage 240 μg/dose daily, aged mice
[8] = intranasal delivery, 80 μg/dose daily, vs vehicle or oral DMF

| Compound | TGF-beta-induced production of ROS, specifically H2O2 (IPF lung fibroblasts [1]; DMF 1 μM pre-treatment, then TGF-b 2 ng/ml, vs vehicle (DMSO)) | production of H2O2 (established pro-fibrotic phenotype) (IPF lung fibroblasts [1]; DMF 1 μM, no TGF-beta, culture supernatant, vs vehicle) | TGF-beta-induced expression of collagen-1 (IPF lung fibroblasts [2]; DMF 1 μM pre-treatment, then TGF-b 2 ng/ml, 48 h) | production of collagen-1 (established pro-fibrotic phenotype) (IPF lung fibroblasts [2]; DMF 1 μM, no TGF-beta, 24 h) | resolution of age-dependent established lung fibrosis (histopathology) ([3]; intranasal 80 μg/dose daily, aged mice) | lung collagen deposition (Masson's trichrome) [3, 6] | lung collagen-1 expression levels [3, 6] | lung fibronectin expression levels [3, 6] | lung hydroxyproline levels [3, 6] | lung fibrosis compared with vehicle-treated mice [3, 7] | resolution of age-dependent established lung fibrosis [3, 7] | lung Nrf2 expression levels (Nrf2; intranasal delivery, 80 μg/dose daily, aged-injured mice) | lung Nrf2 expression levels (Nrf2; oral administration, 240 μg/dose daily, aged mice with established fibrosis) | blood ROS levels ([4]; intranasal delivery, 80 μg/dose daily) | lung lipid peroxidation [4, 8] | lung oxidized glutathione levels [4, 8] | blood ROS levels ([4]; oral administration, 240 μg/dose daily) | antioxidant responses in IPF lung fibroblasts (IPF lung fibroblasts [5]) | dedifferentiation of IPF myofibroblast (IPF lung fibroblasts [5]) |
| --- | --- | --- | --- | --- | --- | --- | --- | --- | --- | --- | --- | --- | --- | --- | --- | --- | --- | --- | --- |
| COC(=O)/C=C/C(=O)OC [DMF, dimethyl fumarate] | significantly reduced | significantly inhibited | inhibition | significantly inhibited | resulted in resolution | reduced collagen deposition | significantly decreased | significantly decreased | decreased lung hydroxyproline levels | indistinguishable from vehicle-treated mice | failed to promote the resolution | significantly increased | failed to rescue | did not impact | significantly reduced | significantly reduced | reduced blood ROS levels |  |  |
| C[S+]([O-])CCCCN=C=S (stereo not shown) [sulforaphane] |  |  |  |  |  |  |  |  |  |  |  |  |  |  |  |  |  | restored antioxidant responses | promoted dedifferentiation |
